In US20040013733A1, “Preparation of a biodegradable thermal-sensitive gel system” (Industrial Technology Research Institute, priority 2001, published 2004):

System: blood vessel growth (angiogenesis)
Test: The angiogenesis animal model: gel of Example 4 mixed with drug injected to mice, blood vessel growth observed
Format: in vivo
Details: drug in gel of Example 4, 0.5 mL gel injected, two months old mice, N=2, after 15 days, gel and adjacent tissue
Experimental: The gel solution prepared according the process of Example 4 was mixed with various drugs listed in tablet at room temperature and is injected (0.5 mL gel each) to two months old mice, N=2. Sacrifice the mice after 15 days and take out the gel and its adjacent tissue to observe the blood vessel growth. The results are listed in table 1 and shown in the color pictures supplemented (please refer to attachments).
The tissue taken out was observed by electron microscope and the results were shown as FIG. 2.
In other words, the endothecium cell and blood vessels of the host can develop in the beehive structure of the gel. The results tell us that co-administrate the gel of the present invention and angiogenesis drug did benefit angiogenesis.

## bFGF: angiogenesis-inducing growth factor, 250 ng/ml, mixed with gel of Example 4
  Blood vessel growth state: Angiogenesis is present
